According to patent US9216173B2, “2-Pyridyl carboxamide-containing spleen tyrosine kinase (SYK) inhibitors” (Merck Sharp & Dohme Corp., priority 2011, dated 2015):

Tested on: PGD2
Experiment: not given
Conditions: dosed intranasally, phase I/II, allergic rhinitis; cited from earlier work

In the case of Oc1cccc(Nc2ncc(F)c(Nc3cccc(O)c3)n2)c1 [Example R112], the PGD2 level is listed as “statistically significant decrease”.

In the case of Oc1cccc(Nc2ncc(F)c(Nc3cccc(O)c3)n2)c1 [Example R112], the clinical safety is listed as “safe across a range of indicators”.

Tested on: not given
Experiment: not given
Conditions: phase II clinical trial, allergic rhinitis; cited from earlier work

For Oc1cccc(Nc2ncc(F)c(Nc3cccc(O)c3)n2)c1 [Example R112], the efficacy versus placebo is given as “lack of efficacy”.

Biological target: T1, recombinant human GST-SYK (Homo sapiens, UniProt P43405)
T1 construct: purchased Carna Biosciences 08-176
Experiment: Homogeneous Time-Resolved Fluorescence (HTRF) assay for the recombinant human Syk enzyme
Format: biochemical
Conditions: GST-hSYK 5 pM, ATP 25 μM, 10-dose titration 10 μM to 0.508 nM; read-out: IC50
Procedure, shortened: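 GST-hSYK fusion phosphorylates a peptide for 45 min at room temperature. Quenched with EDTA buffer containing 2 nM Eu-anti-phosphotyrosine antibody and 70 nM SA-APC. HTRF signal read after 30 min.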

CCC(CN)Nc1cnc(C(N)=O)c(Nc2ccn(C)n2)c1 (stereo not drawn) [Example 1.95, 5-{[1-(aminomethyl)propyl]amino}-3-[(1-methyl-1H-pyrazol-3-yl)amino]pyridine-2-carboxamide] showed an IC50 of 120 nM.

Same assay, conditions: GST-hSYK 5 pM, ATP 25 μM, 10-dose titration 10 μM to 0.508 nM; read-out: rhSYK Activity (IC50 rating)

NC(=O)c1ncc(N[C@@H]2CCCC[C@@H]2N)cc1Nc1ccn(-c2ccccc2)n1 [Example 1.14, 5-{[(1R,2S)-2-aminocyclohexyl]amino}-3-[(1-phenyl-1H-pyrazol-3-yl)amino]pyridine-2-carboxamide] and NC(=O)c1ncc(N[C@@H]2CCCC[C@@H]2N)cc1Nc1ccn(-c2ccc(Cl)cc2)n1 [Example 1.63, 5-{[(1R,2S)-2-aminocyclohexyl]amino}-3-{[1-(4-chlorophenyl)-1H-pyrazol-3-yl]amino}pyridine-2-carboxamide] cannot be ordered by IC50: < 10 nM for the first, < 10 nM for the second.

Cc1nc(Nc2cc(NC[C@H](C)N)cnc2C(N)=O)ccc1-c1cn(C)cn1 [Example 1.10, 5-{[(2S)-2-aminopropyl]amino}-3-{[6-methyl-5-(1-methyl-1H-imidazol-4-yl)pyridin-2-yl]amino}pyridine-2-carboxamide] and C[C@H](N)CNc1cnc(C(N)=O)c(Nc2ccn(-c3ccc(F)cc3)n2)c1 [Example 1.93, 5-{[(2S)-2-aminopropyl]amino}-3-{[1-(4-fluorophenyl)-1H-pyrazol-3-yl]amino}pyridine-2-carboxamide] cannot be ordered by IC50: < 10 nM for the first, < 10 nM for the second.

Compared with Cc1nc(Nc2cc(N[C@@H]3CCCC[C@@H]3N)cnc2C(N)=O)ccc1C(=O)N(C)C [Example 17, 5-{[(1R,2S)-2-aminocyclohexyl]amino}-3-{[5-(dimethylcarbamoyl)-6-methylpyridin-2-yl]amino}pyridine-2-carboxamide], Cc1nc(Nc2cc(N[C@@H]3CCCC[C@@H]3N)cnc2C(N)=O)ccc1C(=O)O [Example 16, 6-[(5-{[(1R,2S)-2-aminocyclohexyl]amino}-2-carbamoylpyridin-3-yl)amino]-2-methylpyridine-3-carboxylic acid] is lower in IC50: 10 to 100 nM for the first, < 10 nM for the second.

Compared with CCC(CN)Nc1cnc(C(N)=O)c(Nc2ccn(C)n2)c1 (stereo not drawn) [Example 1.95, 5-{[1-(aminomethyl)propyl]amino}-3-[(1-methyl-1H-pyrazol-3-yl)amino]pyridine-2-carboxamide], Cc1cccc(Nc2cc(NCCN)cnc2C(N)=O)n1 [Example 1.4, 5-[(2-aminoethyl)amino]-3-[(6-methylpyridin-2-yl)amino]pyridine-2-carboxamide] is lower in IC50: 100 to 1000 nM for the first, 10 to 100 nM for the second.

First: CSCC(N)CNc1cnc(C(N)=O)c(Nc2cc(C)cc(C)n2)c1 (stereo not drawn) [Example 2.8, 5-{[2-amino-3-(methylsulfanyl)propyl]amino}-3-[(4,6-dimethylpyridin-2-yl)amino]pyridine-2-carboxamide]
Second: Cc1cc(C)nc(Nc2cc(NCC(N)C(=O)N(C)C)cnc2C(N)=O)c1 (stereo not drawn) [Example 2.9, 5-{[2-amino-3-(dimethylamino)-3-oxopropyl]amino}-3-[(4,6-dimethylpyridin-2-yl)amino]pyridine-2-carboxamide]
The IC50 of the first is lower: < 10 nM for the first, 100 to 1000 nM for the second.

NC(=O)c1ncc(N[C@@H]2CCCC[C@@H]2N)cc1Nc1cccc(-c2ccc3c(c2)CCO3)n1 [Example 1.15, 5-{[(1R,2S)-2-aminocyclohexyl]amino}-3-{[6-(2,3-dihydro-1-benzofuran-5-yl)pyridin-2-yl]amino}pyridine-2-carboxamide] and NC(=O)c1ncc(N[C@@H]2CCCC[C@@H]2N)cc1Nc1ccc2ccccc2n1 [Example 1.9, 5-{[(1R,2S)-2-aminocyclohexyl]amino}-3-(quinolin-2-ylamino)pyridine-2-carboxamide] cannot be ordered by IC50: < 10 nM for the first, < 10 nM for the second.

NC(=O)c1ncc(N[C@@H]2CCCC[C@@H]2N)cc1Nc1cccc(F)n1 [Example 1.48, 5-{[(1R,2S)-2-aminocyclohexyl]amino}-3-[(6-fluoropyridin-2-yl)amino]pyridine-2-carboxamide] and Cc1nc(Nc2cc(N[C@@H]3CCCC[C@@H]3N)cnc2C(N)=O)ccc1-c1ccc2c(c1)CNC2=O [Example 3.17, 5-{[(1R,2S)-2-aminocyclohexyl]amino}-3-{[6-methyl-5-(1-oxo-2,3-dihydro-1H-isoindol-5-yl)pyridin-2-yl]amino}pyridine-2-carboxamide] cannot be ordered by IC50: < 10 nM for the first, < 10 nM for the second.
